In patent US12708676B2, “Phosphate compounds for detecting neurological disorders” (Amydis, Inc., priority 2018, dated 2026):
In brackets after ≈: the same amount, converted by molar mass.

Tests used:
[1] = Solubility of Compound 7 in various media; format: physicochemical
Procedure: The physical properties of Compound 7 were determined.

Aβ = assay: Example 4: detection of Aβ in the retina of a TBI (blast) mouse model; format: in vivo; details: after Compound 9 intravenously, example in present tense
Procedure: This example is conducted to determine whether Compound 9 detects Aβ in the retina of a TBI mouse model.
Blast model mice 24 hours after injury and a non-injured mouse are administered Compound 9 intravenously. Mice retinas are scanned by scanning laser ophthalmoscopy (SLO).
Alternatively, or in addition to retinal scanning, retinal tissues are removed and stained with an anti-Aβ antibody (6E10).

alpha-synuclein = alpha-synuclein (Homo sapiens, UniProt P37840); assay: Example 9: ex vivo flatmount staining of human retinas with Compound 7 and SYN-1 Ab; format: binding; details: for Average No. of co-stained objects / Average No. of singly-stained objects: PD retina, per ~250,000 μm^2 area; for Average No. of co-stained objects: co-stained with SYN-1; for Co-localization with alpha-synuclein (SYN-1 Ab): 60 μM Compound 7
Procedure: To understand if Compound 7 (active drug) can detect retinal α-syn in human eyes, human retinal tissue was extracted post-mortem from both a healthy patient and a patient diagnosed with Parkinson's Disease, and stained with Compound 7, DAPI and a SYN1 antibody.
Eye dissection: Cornea, iris and lens were removed from the eye cup and the eye placed into 4% PFA for 1 hour. […] The different regions were mounted on separate slides.
Flatmount retinal staining: The tissue was fixed in room temperature 4% PFA for 20 minutes, washed, permeabilized, blocked (2.5% goat serum in PBST), stained with Alpha-synuclein antibody (SYN-1) at a dilution of 1:1000 and incubate overnight at 4° C., washed with PBST (3 times for 5 minutes), incubated with secondary antibody (Alexa fluor 647 anti-mouse) in dark for 1 hr at RT. The tissue was then washed with PB ST (3 times for 5 minutes), incubated with 60 μM Compound 7 for 30 minutes at RT, washed with PBS (3 times for 10 minutes), incubate with DAPI (300 nM or 100 ng/mL) in dark for 10 minutes, and washed with PBS (3 times for 5 minutes). The tissue was then mounted using antifade DAKO mounting media.
To determine the number of objects co-stained with Compound 7 and SYN1, the average number of objects co-stained with Compound 7 and SYN1 was quantified. This was completed for each quadrant of both the left and right eye (Table 10 and Table 11).

N#C/C(=C\c1ccc2cc(N3CCCCC3)ccc2c1)C(=O)NCCOCCOCCO [Compound 7, (E)-2-cyano-N-(2-(2-(2-hydroxyethoxy)ethoxy)ethyl)-3-(6-(piperidin-1-yl)naphthalen-2-yl)acrylamide]
solubility ([1]; SGF, simulated gastric fluid): 3600 µg/mL (≈ 8230 µM) | solubility ([1]; castor oil, oil or lipid): > 9000 µg/mL | solubility ([1]; n-octanol, organic solvent or mixture): > 8000 µg/mL | solubility ([1]; pH 4.0 buffer, pH 4, aqueous buffer): 70 µg/mL (≈ 160 µM) | solubility ([1]; pH 7.0 buffer, pH 7, aqueous buffer): 4.6 µg/mL (≈ 10.5 µM) | solubility ([1]; pH 7.4 buffer, pH 7.4, aqueous buffer): 3.3 µg/mL (≈ 7.54 µM) | solubility ([1]; pH 9.0 buffer, pH 9, aqueous buffer): 4.8 µg/mL (≈ 11 µM) | solubility ([1]; water): 1.7 µg/mL (≈ 3.89 µM) | Fluorescent labelling of retinal deposits (Aβ; mouse with blast injury): fluorescently labels retinal deposits that are visible upon fluorescent activation | Fluorescent enhancement in retinal tissue (Aβ; uninjured mouse): does not display any fluorescent enhancement | Average No. of co-stained objects (alpha-synuclein; left eye, Inferior): 13.6 | Average No. of singly-stained objects (alpha-synuclein; left eye, Inferior): 0.87 | Average No. of co-stained objects (alpha-synuclein; left eye, Nasal): 13 | Average No. of singly-stained objects (alpha-synuclein; left eye, Nasal): 0.75 | Average No. of co-stained objects (alpha-synuclein; left eye, Superior): 20 | Average No. of singly-stained objects (alpha-synuclein; left eye, Superior): 0.25 | Average No. of co-stained objects (alpha-synuclein; left eye, Temporal): 12.37 | Average No. of singly-stained objects (alpha-synuclein; left eye, Temporal): 0.5 | Average No. of co-stained objects (alpha-synuclein; right eye, Inferior): 12.12 | Average No. of singly-stained objects (alpha-synuclein; right eye, Inferior): 0.75 | Average No. of co-stained objects (alpha-synuclein; right eye, Nasal): 14.3 | Average No. of singly-stained objects (alpha-synuclein; right eye, Nasal): 1.75 | Average No. of co-stained objects (alpha-synuclein; right eye, Superior): 16 | Average No. of singly-stained objects (alpha-synuclein; right eye, Superior): 0.5 | Average No. of co-stained objects (alpha-synuclein; right eye, Temporal): 11.62 | Average No. of singly-stained objects (alpha-synuclein; right eye, Temporal): 0.5 | Co-localization with alpha-synuclein (SYN-1 Ab) (alpha-synuclein; post-mortem retinas of healthy human patient): very little or no co-localization | Co-localization with alpha-synuclein (SYN-1 Ab) (alpha-synuclein; post-mortem retinas of human PD patient): co-localization of Compound 7 and Alpha-Synuclein deposits (SYN-1 Ab) in all regions
